In US9974767B2, “Statins in the treatment of muscular dystrophies and myopathies” (University of Washington, priority 2014, dated 2018):

Assays:
Format in all cases: in vivo, mouse
[1] = test system: Phospholamban (PLB), SERCA2a; test: SERCA2a, PLB S-16 and total PLB expression in cardiac muscle, immunoblotting; conditions: old mdx mice, vs mdx Con
From the text: Aberrant Ca2+ handling in dystrophic cardiomyocytes leads to impaired relaxation, which is a major cause of diastolic dysfunction. […] Phospholamban (PLB) is a major inhibitor of SERCA activity and can therefore depress cardiac function.

[2] = test system: mdx mice; test: Diaphragm fibrosis (fibronectin immunofluorescence, hydroxyproline assay for collagen I)
From the text: In order to be a viable treatment approach for DMD, a drug must be efficacious at different stages of the disease and target both skeletal and cardiac muscle. […] Diaphragm force production progressively declines with age in both mdx mice and DMD. […] The replacement of muscle fibers with fibrotic connective tissue is a major cause of impaired muscle force generation in DMD and therefore an important therapeutic target. […] Quantification of total collagen I levels by hydroxyproline assay indicated a 50% reduction in fibrosis for mdx Sim mice.
The diaphragm most closely recapitulates the functional deficits and fibrotic deposition that occur in DMD. […] Quantification of total collagen I levels in diaphragm muscles by hydroxyproline assay also indicated a 50% reduction in fibrosis for mdx Sim mice (FIG. 13E).
Muscles were imbedded in O.C.T compound and frozen in isopentane cooled in liquid nitrogen. […] For fluorescence quantification (CD68, fibronectin and myosin heavy chains), images were converted to grayscale in Image J and a threshold applied to calculate the area of fluorescence as a percent of the total area of the section. Fibers with central nuclei were expressed as a percent of total fibers with detectable nuclei (ie. both central and peripheral).
To quantify muscle fibrosis, Collagen I content was measured using the hydroxyproline assay. […]

[3] = test system: mdx mice; test: Voluntary running wheel activity over 2 days; conditions: P=0.13
[4] = test system: atrogin-1; test: Atrogin-1 mRNA in quadriceps muscles, qPCR; conditions: old mdx Sim mice
From the text: Another pathway that has been implicated in statin myopathy is muscle atrophy mediated by atrogin-1, a ubiquitin-protein ligase that stimulates protein breakdown. Atrogin-1 is induced by statin treatment in animal models and humans with statininduced myopathy. However, in DMD, atrogin-1 levels are consistently lower than in normal muscle and are not increased at any stage of the disease.
Total RNA was isolated from quadriceps of WT, mdx, and simvastatintreated mdx mice using Trizol (Life Technologies) and further purified using an RNAeasy Kit (Qiagen). Real-time quantitative RT-PCR (qPCR) was performed using TaqMan chemistry and the ABI 7000 sequence detection system with 50 ng of RNA, ABI Fast Virus 1-Step Master Mix reagents, and primer sets specific for atrogin-1 and HPRT (Applied Biosystems). Data were obtained from 5 mice in each treatment group and normalized to the internal HPRT control.

[5] = test system: LC3A/LC3B; test: LC3A and LC3B expression in diaphragm (autophagy), Western blot; conditions: old mdx Sim vs mdx Con
From the text: Autophagy is an important cellular pathway for degrading damaged proteins, organelles and protein aggregates, which are then recycled by the cell for energy use. Impaired autophagy can trigger cell death and in skeletal muscle, proper regulation of autophagy is essential for normal cellular and physiological function. Both mdx and DMD muscles show evidence of reduced autophagy and treatment of mdx mice with a low protein diet triggered autophagy, which reduced inflammation and fibrosis and enhanced muscle function. […] A key protein marker of autophagic flux is the microtubule-associated protein 1A/1B light chain 3, which has a cytosolic form (LC3A) and a lapidated form (LC3B). An increased level of LC3B relative to LC3A is indicative of enhanced autophagic flux.
Tibialis anterior (TA) muscle function was measured in situ. Mice were anaesthetized with an intraperitoneal injection of Avertin (625 mg/kg) and placed on a heated metal platform (37° C.). The distal TA tendon was dissected free and sutured to the lever arm of the force and length control system (305C-LR, Aurora Scientific). […] Fatigue recovery was measured every 2 min up to 10 min post-fatigue. […] Membranes were incubated with enhanced chemiluminescence (ECL) reagent (Amersham) and bands were detected by the FluorChem M, imaging system (Protein Simple).

Structure (SMILES): CCC(C)(C)C(=O)O[C@H]1C[C@@H](C)C=C2C=C[C@H](C)[C@H](CC[C@@H]3C[C@@H](O)CC(=O)O3)[C@H]21 [Simvastatin, simvastatin]
- increase of PLB S-16 [1]: 55%
- attenuation of fibrosis, fibronectin immunofluorescence ([2]; diaphragm sections, old mdx Sim vs mdx Con): 50%
- reduction in fibrosis, total collagen I levels by hydroxyproline assay ([2]; diaphragm, old mdx mice, 2 months treatment): 50%
- voluntary running wheel activity, more than control mdx mice [3]: 20%
- atrogin-1 mRNA levels [4]: not significantly different from mdx Con
- increase of LC3B [5]: 40%
